{"source": "patent US9371330B2", "about": "“Substituted pyrazino[1,2-a]pyrimidines useful as CBP/catenin antagonists for enhancing asymmetric division of somatic stem cells” (University of Southern California, priority 2011, dated 2016)", "key": {"PC-12 cells": {"tested_on": "PC-12 cells", "experiment": "PC-12 cells with FAD mutant PS-1 (L286V): neuronal differentiation", "format": "cell-based", "description": "However, the effects of PS-1 mutations on the stability of beta-catenin, TCF/beta-catenin signaling, and thereby its potential role in AD remain controversial. Applicant has shown that introduction of a FAD mutant PS-1 (L286V) into PC-12 cells causes increased TCF/beta-catenin signaling, leading to the inhibition of neurite outgrowth. […] In the CNS, EpB2 expression is associated with axonal guidance (16). […] In initial in vivo studies, applicant treated penta-transgenic mice that over express mutant APP(695) (Swedish (K670N,M671L), Florida ([…]) and London (V717I)) and PS-1 (M146L and L286V) mutations with ICG-001 for 2 months (months 2-4). These mice normally develop massive cerebral deposition of Aβ starting at 6 weeks of age."}, "MDA-MB-231 cells": {"tested_on": "MDA-MB-231 cells", "experiment": "MDA-MB-231 stem/tumor initiating cell markers", "format": "cell-based", "description": "This phenotype CD44^hi, CD24^lo has been associated with a subpopulation of cells that behave like a breast cancer stem/tumor initiating cell population (51). […] Beyond reduction of survivin message level, there is a gene expression profile consistent with the occurrence of a mesenchymal to epithelial (MET) transition (i.e. decreased expression of twist, vimentin and S100A4 and an increase in E-cadherin expression). Recently, there have been a number of papers, which have correlated epithelial to mesenchymal transition (EMT) with a CSC phenotype (52). EMT is a normal physiologic process that is important in development and in adults, for example in wound healing, but pathophysiologically is associated with tumor metastasis and organ fibrosis (see later discussion on fibrosis). Specific CBP/catenin antagonists can reverse this aberrant EMT in vivo (EMT also plays a critical role in the skin in hair loss etc. J Dermatol Sci. 2011 January; 61(1):7-13. Epub 2010 Dec. 5; epithelial-mesenchymal transition (EMT) plays important roles not only in the morphogenesis but also in wound repair, tissue fibrosis and cancer progression. Recently, regulatory mechanism of this process has been elaborately elucidated. EMT can be a new therapeutic target for treating skin ulcer, fibrosing alopecia, and malignant cutaneous cancers, including squamous cell carcinoma and melanoma)."}, "[1]": {"tested_on": "NOD/SCIDIL2R gamma-/- mice", "experiment": "leukemia mouse model: hair growth and wound healing", "format": "in vivo", "details": "ICG-001 50 mg/kg/d with VDL vs VDL only, 50 mg/kg/day", "procedure": "NOD/SCIDIL2R gamma−/− mice were shaved and sublethally irradiated prior intravenous injection of 50,000 cells per animal. Leukemic animals were treated with a combination of intraperitoneally administered vincristine/dexamethasone/L-Aspariginase (VDL) and ICG-001 (50 mg/kg/d), which was delivered via subcutaneous osmotic pumps to ensure stable plasma levels, with VDL only as a control for 20 days. The animals were checked periodically for survival, hair growth, and wound healing."}, "aquaporin 1": {"tested_on": "aquaporin 1", "experiment": "ex vivo human skin assay, qRT-PCR of aquaporin 1", "format": "cell-based", "details": "24 hrs; 5 uM ICG-001, 5 uM methylated ICG-001, 1 ug/ml RA", "procedure": "(§1) Methods. Ex Vivo human skin assay culture conditions were based upon a paper by Varani J et al Experimental and Molecular Pathology, 2004.\n(§2) Briefly, human skin (surgical waste from plastic surgery procedures) was obtained and the subcutaneous layer of fat was trimmed manually with a scalpel. The skin was then cut into small fragments about 2 mm square and placed in 6 well plates. 1 ml of keratinocyte culture medium (Gibco 10724-011) with 1% P/S (penstrep antibiotic) was added to each well. The epidermis, bathed in media was placed facing up. On the next day (overnight culture in the media above), the skin fragments were transferred to fresh wells that contained either 5 uM ICG-001, 5-uM methylated ICG-001 or 1 ug/ml of retinoic acid (RA). After 24 hrs, skin samples in culture were removed for RNA isolation and qRT-PCR analysis of genes of interest (e.g. elastin (a gene involved in skin appearance and pliability (e.g., wrinkling) and aquaporin 1, which is involved with hydration."}, "[2]": {"tested_on": "drug resistant leukemia stem cells", "experiment": "NOD/SCID/IL2rγ-/- mouse model of engrafted human CML", "format": "in vivo", "description": "Chronic myelogenous leukemia (CML). Despite the stunning clinical success achieved to date in chronic phase CML patients treated with the BCR-ABL antagonist Gleevec/Imatinib (IM), responses in advanced phase patients are often short-lived, and patients invariably undergo disease progression. Furthermore, resistance to IM develops in 2% to 4% of patients annually and IM dose escalation is generally not sufficient to control the disease. Several mechanisms that contribute to tyrosine kinase inhibitor (TKI) resistance have been proposed including the insensitivity of quiescent CML stem cells to TKIs due to low expression of BCR-ABL and the emergence of drug resistant leukemic clones associated with increased nuclear catenin levels, a hallmark of increased Wnt/catenin transcription. […] Epigenetic silencing of negative regulators of the Wnt signaling cascade is also frequently associated with leukemias, including CML. […] The mice treated with one course (28 days from day 13-41 after leukemia engraftment) of CBP/catenin antagonist plus bcr-abl antagonist are essentially cured of leukemia and live as long (approximately 2 years) as their littermates that were never engrafted with leukemia."}, "[3]": {"tested_on": "bleomycin-induced pulmonary fibrosis", "experiment": "bleomycin-induced lung injury / pulmonary fibrosis", "format": "in vivo, mouse", "source_text": "The well-characterized model of bleomycin-induced lung injury has been extensively used to investigate potential pathways involved in the pathogenesis of pulmonary fibrosis and to explore therapeutic approaches."}, "hair follicle": {"tested_on": "hair follicle", "details": "cited from earlier work"}, "elastin": {"tested_on": "elastin", "experiment": "ex vivo human skin assay, qRT-PCR of elastin", "format": "cell-based", "details": "24 hrs; 5 uM ICG-001, 5 uM methylated ICG-001, 1 ug/ml RA", "procedure": "as §1, §2"}, "[4]": {"tested_on": "cerebral deposition of Aβ", "experiment": "Aβ deposition in penta-transgenic mouse model of Alzheimer's disease", "format": "in vivo", "details": "50 mg/kg/day, 2 months, immunohistochemistry, vs saline", "procedure": "Applicant utilized a penta-transgenic mouse model of AD, which normally develops massive cerebral deposition of Aβ starting at 6 weeks of age. These mice were treated with either (A) ICG-001 (50 mg/kg/day) or (B) saline for 2 months. […] However, the effects of PS-1 mutations on the stability of beta-catenin, TCF/beta-catenin signaling, and thereby its potential role in AD remain controversial. […] In the CNS, EpB2 expression is associated with axonal guidance (16). […] In initial in vivo studies, applicant treated penta-transgenic mice that over express mutant APP(695) (Swedish (K670N,M671L), Florida ([…]) and London (V717I)) and PS-1 (M146L and L286V) mutations with ICG-001 for 2 months (months 2-4). These mice normally develop massive cerebral deposition of Aβ starting at 6 weeks of age."}, "Min mouse": {"tested_on": "Min mouse", "experiment": "Min mouse polyps", "details": "in vivo", "description": "Cancer. The importance of Wnt signaling in colorectal cancer is undisputed. Applicant's investigation on the therapeutic utility of ICG-001 therefore quite naturally began with colon cancer."}}, "note": "“Also recorded” adds a separate entry of the source."}
{"smiles": "O=C1[C@H](Cc2ccc(O)cc2)N2C(=O)CCN(C(=O)NCc3ccccc3)[C@H]2CN1Cc1cccc2ccccc12", "note": "[ICG-001]", "values": [{"measurement": "GAP43 expression", "setting": "PC-12 cells; NGF-induced differentiation, vs untreated cells", "result": "dramatically increased"}, {"measurement": "neuronal differentiation and neurite outgrowth", "setting": "PC-12 cells; PS-1 (L286V) mutant cells", "result": "rescues the defects in neuronal differentiation and neurite outgrowth"}, {"measurement": "CD44 expression", "setting": "MDA-MB-231 cells", "result": "decreasing CD44 expression"}, {"measurement": "side population (SP) and ALDH activity", "setting": "MDA-MB-231 cells", "result": "dramatically decreases the side population (SP) and ALDH activity"}, {"measurement": "cell surface CD24 expression", "setting": "MDA-MB-231 cells; 24 h", "result": "significantly increased the expression of cell surface CD24"}, {"measurement": "hair growth on shaved area", "setting": "[1]; within two weeks", "result": "had regrown their hair; also recorded: substantial hair growth covering the entire previously shaved area"}, {"measurement": "healing of pump insertion wounds", "setting": "[1]", "result": "had substantial improved; also recorded: heal quicker"}, {"measurement": "expression of aquaporin 1", "setting": "aquaporin 1", "result": "increase"}, {"measurement": "effect on normal endogenous hematopoiesis", "setting": "[2]; mouse, in vivo", "result": "without deleterious effects to normal endogenous hematopoiesis"}, {"measurement": "elimination of drug resistant leukemia stem cells", "setting": "[2]; with bcr-abl antagonist", "result": "drug resistant leukemia stem cells can be eliminated"}, {"measurement": "bleomycin-induced lacZ expression in airway and alveolar epithelium", "setting": "[3]; BAT-gal transgenic mice", "result": "significantly reduced"}, {"measurement": "expression of S100A4/FSP-1", "setting": "[3]; bleomycin model in vivo in the mouse and fibroblasts from IPF patients in vitro", "result": "significantly decreased the expression of S100A4/FSP-1"}, {"measurement": "established fibrosis", "setting": "[3]; mouse, in vivo", "result": "could reverse established fibrosis"}, {"measurement": "severity of pulmonary fibrosis", "setting": "[3]; pretreatment", "result": "significantly reduced the severity of pulmonary fibrosis"}, {"measurement": "survivin expression", "setting": "hair follicle", "result": "decreased survivin expression"}, {"measurement": "hair fiber elongation", "setting": "hair follicle; dose-dependent", "result": "significantly reduced hair fiber elongation"}, {"measurement": "expression of elastin", "setting": "elastin", "result": "increase"}, {"measurement": "amyloid plaque formation / Aβ staining", "setting": "[4]", "result": "significant decrease in amyloid plaque formation; also recorded: decrease in Aβ staining"}, {"measurement": "polyps", "setting": "Min mouse", "result": "reducing polyps"}]}
